# Columns and labels:
# [1] = test system: serum IgA of patients with CD; settings: cited from earlier work
# [2] = test system: CD patient IgG antibodies; assay: Individual clone reactivity with individual patient sera by flow cytometry (second-generation PEQ peptides); assay type: binding, human; settings: CD case sera n=18 not used for screening
# Procedure: Depletion of E. coli binding serum antibodies. Diluted sera were depleted of E. coli binding antibodies prior to library screening and clone reactivity assays. To remove E. coli binding antibodies, an overnight culture of cells expressing the library scaffold (eCPX) with or without the v114 peptide were diluted (1:50) in fresh media and grown separately until the optical density at 600 nm (OD600) was ˜0.6. Cells were induced for 1 hr at 37° C., and then 2×10^9 cells from each culture were combined and centrifuged at 3000 ref for 5 min. Cells were resuspended in PBS-T (1 mL) containing 100× diluted pooled or individual sera. Samples were incubated overnight at 4° C. on an orbital shaker at 20 rpm. After incubation, samples were centrifuged at 3000 ref for 5 min (2×), and the depleted serum supernatant was recovered and stored at 4° C. for up to three days before use.
# For flow cytometric analysis and sorting, induced cells corresponding to 5× the estimated remaining clonal diversity were incubated with 1:100-1:200 dilution of pooled sera for 45 min at 4° C. followed by centrifugation and removal of unbound supernatant (3× washing). The pellet was then resuspended in the respective 1:500 biotinylated goat anti-human secondary antibody (IgA/IgG/IgM) in 1× PBST at 4° C. for 45 min followed by centrifugation and removal of unbound supernatant (2× washing). For tertiary labeling, the pellet resuspended in 15 nM SA-PE in 1× PBST at 4° C. for 45 min, followed by another wash via centrifugation and resuspension (3× washing) in ice-cold PBST at a volume between 10^7 and 10^8 cells/mL. Resuspended cells were analyzed using a FACSAria cell sorter (Becton Dickinson) using 488-nm excitation. After sorting, retained cells were amplified for further rounds of sorting by overnight growth and plated to isolate single clones. […]
# In vitro evolution of CD specific peptides. […] To assess the diagnostic sensitivity and specificity of individual peptides, the reactivities of one representative clone from each motif group was measured using CD case (n=18) and non-CD control sera (n=5) not used for screening. […]
# [3] = test system: anti-CSE antibodies; assay: CSE reactivity in matched CD sera at diagnosis and after one year of gluten-free diet; assay type: binding, human; settings: 11 CD cases
# Excerpt: Active CD patients (n=54) ranging in age from 18-74 had small intestinal biopsies with a Marsh 3a-3c histological lesion, tested seropositive for transglutaminase (TG2) and endomysium (EMA) autoantibodies, and were Caucasian. Human lymphocyte antigens (HLA)-typing for the presence of DQ2 or DQ8 alleles was available for 42/54 CD sera.
# Directed evolution pooled clone & individual patient single clone reactivity assays. To compare the reactivity of consensus epitopes from each generation, overnight cultures of individual clones within a consensus epitope family (4-5 clones/family) were diluted (1:50) in fresh media and grown until the OD600 was between 0.5 and 0.7. Cultures of each individual Clones were induced for 45 min, and 10^6 cells from each culture were pooled together. Pooled consensus epitope families were assayed for binding to case and control group sera (3 subjects/group) by flow cytometry. […] Cells expressing the eCPX scaffold without a peptide insert were used as a negative (background) control. […]
# To determine prevalence of anti-CSE antibodies in CD and control subjects, CD and non-CD sera (n=231) were assessed for reactivity to the CSE peptide: MDVRCRDSFVYQCHVGT (SEQ ID NO: 2). […]
Sequence,CD sera the peptide reacted with (reactive/tested) [2],further results
"VVKGGSSSLGW [celiac peptide, synthetic peptide of Giovanna et al., PLOS Med. 2006]",,individual patients with CD whose serum IgA specifically recognized the peptide [1]: 68%
"VWDRGVPEQMFPRKG [PEQxFP motif derived peptide, focused library 1]",18/18,
MDVRCRDSFVYQCHVGT [CSE peptide],,"patients with reduced, but non-zero, levels of epitope reactivity after a GFD ([3]; after one year on a gluten-free diet): 8/11; active CD patients reactive ([3]; sera at time-of-diagnosis): 10/11"
"GQGQAFPEQGSVPIN [A/VFPEQ motif peptide, focused library 1]",14/18,
"VAWTMGPEQPLVRAL [PEQPL motif peptide, focused library 1]",11/18,

# Reference: patent publication US20160033528A1, “Methods for Selecting Peptides that Bind to Disease Specific Antibodies, Disease Specific Peptides and Uses Thereof” (The Regents of the University of California, priority 2014, published 2016)
